Measured values: patent US20180142537A1, “WATER INJECTION SYSTEM COMPRISING BIOFILM SENSOR(S)” (TOTAL SA, priority 2015, published 2018)

Assays:
biofilm [1] = assay: Detection and removal of biofilm by batch or continuous injection of a biocide, seawater channels with ALVIM electrochemical biofilm probe; details: Mediterranean seawater; for biofilm probe signal after batch injection of biocide: batch injections at biofilm phases 900 mV, 1100 mV and 1200 mV, FIG. 3
Description: Tests of biofilm detection were carried out in a pilot plant continuously fed with Mediterranean seawater (2 m deep, 50 m from the coast). The experimental conditions are favorable to the biofilm growth: laminar flowing and coastal seawater rich in microorganisms and suspended solids (Silt Density Index SDI5min=10-18).
Tests were carried out in a tank divided in 6 parallel channels with equal dimensions (0.76 m-long, 0.1 m-deep and 0.07 m-wide per channel). Each channel was continuously fed with from 10 L/h to 40 L/h of seawater pre-filtered with a multimedia filter (40 μm). The speed of water flowing in the channels ranges from 0.0003 to 0.0013 m/s.
Several channels are equipped with an electrochemical biofilm sensor whose working electrode is immersed within the flowing water phase. The electrochemical biofilm sensor is provided by ALVIM Srl. This biofilm sensor is able to detect the electrochemical activity of a biofilm (Faimali et al., 2010 and Pavanello et al., 2011). This activity is proportional to the surface covered with biofilm. Thus, when a biofilm appears on the flat surface of the working electrode, the electrical signal transmitted by the device instantly increases. When the working electrode is immersed in seawater, its potential is stable (around 600 mV). Whenever the working electrode detects the biofilm, its potential increases and reaches a potential threshold which relate to a given maximum value of the probe (signal saturation).
The following experiment has been performed on two parallel channels of the tank. Each one is equipped with an ALVIM probe. Two biocides were tested: sodium hypochlorite (ClO^−Na^+) and rocideDB (DBNPA). Batch injections of biocides have been carried out at different development phases of the biofilm (900 mV, 1100 mV and 1200 mV) in order to evaluate the resistance of the biofilm as a function of its maturation time.

biofilm [2] = assay: Biofilm growth upstream and downstream an ultrafiltration unit, with sodium hypochlorite injection; details: 2 ppm injected at pilot inlet, upstream of the ultrafiltration module; two injections; FIG. 5
From the text: A second series of tests has been carried out to study the efficiency of inline monitoring upstream and downstream an ultrafiltration unit (pore size 10-50 nm). This type of porous membranes is considered as being able to retain all microorganisms present in natural water.
Ultrafiltration modules are used according to the set up represented at FIG. 4. The UF modules are continuously fed with pre-filtered Mediterranean seawater (40 μm multimedia filter F, 2 m deep, 50 m from the coast, laminar flowing, Silt Density Index SDI5min=10-18). The flow rates of the UF modules are: 3000-4000 L/h and the recovery is around 80%.
Two probes are positioned at the following locations of the pilot: • Probe 1: at the feedwater point of the ultrafiltration module (0.4-0.6 m/s);
Probe 2: downstream the ultrafiltration module (flowing velocity=0.3-0.5 m/s).
A dose of sodium hypochlorite is injected at various times during the experiment at the inlet of the pilot (upstream probe 1) as shown on FIG. 5.

OCl [sodium hypochlorite]
biofilm probe signal after batch injection of biocide (biofilm [1]): brings the signal back to the baseline
biofilm growth under continuous biocide injection (biofilm [1]; continuous injection of 1 mg/L): no biofilm growth was detected
signal of probe 1 (feedwater) after biocide injection (biofilm [2]): goes down rapidly to the baseline

N#CC(Br)(Br)C(N)=O [DBNPA, 2,2-dibromo-3-nitrilopropionamide]
biofilm probe signal after batch injection of biocide (biofilm [1]): brings the signal back to the baseline
